From ChEMBL document CHEMBL3867489, “Design, synthesis, antibacterial activity and docking study of some new trimethoprim derivatives” (2016)
Values after ≈ are worked out from the molar mass of the structure shown.

Tests used:
Staphylococcus aureus = assay: Antibacterial activity against Staphylococcus aureus by agar well diffusion method; type: functional
Escherichia coli = assay: Antibacterial activity against Escherichia coli by agar well diffusion method; type: functional

With `COc1cc(Cc2cnc(N)nc2N)cc(OC)c1OCc1ccc([N+](=O)[O-])cc1` the MIC (Staphylococcus aureus) was 32.3 µM (≈ 13.3 µg/mL) and the MIC (Escherichia coli) was 39 µM (≈ 16 µg/mL).

With `COc1cc(Cc2cnc(N)nc2N)cc(OC)c1OCc1ccccc1` the MIC (Staphylococcus aureus) was 18.2 µM (≈ 6.67 µg/mL) and the MIC (Escherichia coli) was 18.2 µM (≈ 6.67 µg/mL).

Compound `COc1ccc(C(=O)COc2c(OC)cc(Cc3cnc(N)nc3N)cc2OC)cc1` has an MIC (Staphylococcus aureus) of 18.7 µM (≈ 7.94 µg/mL) and an MIC (Escherichia coli) of 18.7 µM (≈ 7.94 µg/mL).

For `COc1cc(Cc2cnc(N)nc2N)cc(OC)c1OCC(=O)c1ccc([N+](=O)[O-])cc1`, the MIC (Staphylococcus aureus) was 72.9 µM (≈ 32 µg/mL) and the MIC (Escherichia coli) was 72.9 µM (≈ 32 µg/mL).

For `COc1cc(Cc2cnc(N)nc2/N=C/c2ccc(Cl)cc2)cc(OC)c1O`, the MIC (Staphylococcus aureus) was 535 µM (≈ 214 µg/mL) and the MIC (Escherichia coli) was 535 µM (≈ 214 µg/mL).

For `COc1cc(Cc2cnc(N)nc2N)cc(OC)c1OCC(=O)c1ccc(Cl)cc1`, the MIC (Staphylococcus aureus) was 78.4 µM (≈ 33.6 µg/mL) and the MIC (Escherichia coli) was 78.4 µM (≈ 33.6 µg/mL).

`COc1cc(Cc2cnc(N)nc2N)cc(OC)c1OCC(=O)c1ccccc1` was tested, and the MIC (Staphylococcus aureus) was 81.2 µM (≈ 32 µg/mL) and the MIC (Escherichia coli) was 81.2 µM (≈ 32 µg/mL).

With `COc1cc(Cc2cnc(N)nc2/N=C/c2cccc(O)c2)cc(OC)c1O` the MIC (Staphylococcus aureus) was 672 µM (≈ 256 µg/mL) and the MIC (Escherichia coli) was 336 µM (≈ 128 µg/mL).

Compound `COc1cc(Cc2cnc(N)nc2N)cc(OC)c1OCc1ccc(C)cc1` has an MIC (Staphylococcus aureus) of 10 µM (≈ 3.8 µg/mL) and an MIC (Escherichia coli) of 5 µM (≈ 1.9 µg/mL).

For `COc1cc(Cc2cnc(N)nc2/N=C/c2ccc(O)cc2)cc(OC)c1O`, the MIC (Staphylococcus aureus) was 672 µM (≈ 256 µg/mL) and the MIC (Escherichia coli) was 672 µM (≈ 256 µg/mL).

`COc1cc(Cc2cnc(N)nc2N)cc(OC)c1OCC(=O)c1ccc(C)cc1` gave an MIC (Staphylococcus aureus) of 37.7 µM (≈ 15.4 µg/mL) and an MIC (Escherichia coli) of 15.5 µM (≈ 6.33 µg/mL).

For `COc1cc(Cc2cnc(N)nc2N)cc(OC)c1OCc1ccc(Cl)cc1`, the MIC (Staphylococcus aureus) was 20 µM (≈ 8.02 µg/mL) and the MIC (Escherichia coli) was 8.3 µM (≈ 3.33 µg/mL).

`COc1ccc(COc2c(OC)cc(Cc3cnc(N)nc3N)cc2OC)cc1` was tested, and the MIC (Staphylococcus aureus) was 5 µM (≈ 1.98 µg/mL) and the MIC (Escherichia coli) was 4 µM (≈ 1.59 µg/mL).

Work on `COc1cc(Cc2cnc(N)nc2N)cc(OC)c1O` [4-HYDROXYTRIMETHOPRIM] yielded an MIC (Staphylococcus aureus) of 24.1 µM (≈ 6.66 µg/mL) and an MIC (Escherichia coli) of 48.2 µM (≈ 13.3 µg/mL).

`COc1cc(Cc2cnc(N)nc2N)cc(OC)c1OC` [TRIMETHOPRIM] showed an MIC (Staphylococcus aureus) of 22.7 µM (≈ 6.59 µg/mL) and an MIC (Escherichia coli) of 55.1 µM (≈ 16 µg/mL).
